Source: publication PMC9545868, “Structure‐Based Demystification of Radical Catalysis by a Coenzyme B12 Dependent Enzyme—Crystallographic Study of Glutamate Mutase with Cofactor Homologues” (Angewandte Chemie (International Ed. in English), 2022)

Target: T1, glutamate mutase (GM) (Clostridium cochlearium, UniProt P80077+P80078)
T1 construct: gene glmE; hetero-tetramer of two epsilon and two sigma subunits; construct details only in the supplement
T1 sequence (P80077 1-483): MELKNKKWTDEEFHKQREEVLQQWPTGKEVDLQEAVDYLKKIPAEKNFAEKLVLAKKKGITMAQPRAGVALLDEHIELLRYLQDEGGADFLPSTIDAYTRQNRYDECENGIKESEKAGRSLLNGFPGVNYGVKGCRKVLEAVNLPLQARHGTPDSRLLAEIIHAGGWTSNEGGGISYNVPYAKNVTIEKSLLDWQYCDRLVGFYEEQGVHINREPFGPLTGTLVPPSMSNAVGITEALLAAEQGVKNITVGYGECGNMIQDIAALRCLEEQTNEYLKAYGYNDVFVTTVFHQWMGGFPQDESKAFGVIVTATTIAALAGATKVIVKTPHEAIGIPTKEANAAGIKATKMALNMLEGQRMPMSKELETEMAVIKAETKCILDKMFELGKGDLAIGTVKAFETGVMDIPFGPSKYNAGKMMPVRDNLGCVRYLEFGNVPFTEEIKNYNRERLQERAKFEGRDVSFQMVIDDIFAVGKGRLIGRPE
T1 sequence (P80078 1-137): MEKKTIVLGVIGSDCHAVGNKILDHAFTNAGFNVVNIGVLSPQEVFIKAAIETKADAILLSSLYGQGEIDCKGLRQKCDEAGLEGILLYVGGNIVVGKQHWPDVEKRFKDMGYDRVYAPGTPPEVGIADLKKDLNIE
Experiment: X-ray crystal structures, […] and […] Å
Format: binding
Settings: pseudo-substrate in the substrate site of the epsilon subunit (arginine claw R66, R100, R149); with AdoMeCbl or AdoEtCbl bound

O=C(O)[C@@H](O)[C@H](O)C(=O)O [(S,S)‐tartrate]
X-ray crystal structures, 1.8 and 2.1 Å: strong polar binding interactions with the carboxylate groups of an (S,S)‐tartrate ion
